From patent publication US20070087977A1, “METHODS AND COMPOSITIONS FOR TREATING PAIN” (priority 2004, published 2007)
Where two headings read alike, the source gives them in different places.

Key:
[1] = tested on: mdr1a (P-gP) knockout mouse; details: same doses, cited from earlier work
[2] = tested on: adult subjects with chronic pain; test: Human study of the effects of oral quercetin (Q) and analgesics on sedation, concentration and pain; assay type: in vivo
Procedure: An empiric trial on the effects of oral quercetin (Q) on sedation, concentration, and pain was conducted. Inclusion criteria included ongoing pain of at least 4/10 on the Likert scale, poor tolerance of current analgesic regimen (complaints of sedation, dizziness, inability to focus), and willingness to complete daily diaries.
Approximately 16 adult subjects with chronic pain were screened and 9 subjects were admitted to the trial. Their pain disorders included peripheral neuropathy (2), facial pain (2), cervical radiculopathy (2), lumbar spine disease (3). Their pre-existing medications included short acting opioids (Vicodin TID, Tramadol 50 mg Q4-6), high dose, long acting opioids (OxyContin 240 mg, Methadone 400 mg), Gabapentin (900 mg and 2700 mg), Ativan, Flexeril, and Soma 350 mg. Seven of the subjects were using at least two analgesic medications. Two subjects were using no current medications because of prior histories of sedation and dizziness during opioid trials.
Q (Sigma) 500 mg per gel capsule was compounded and supplied to all subjects by overnight mail. Subjects were instructed to complete daily diaries for 7 days and continue their baseline medications and regular activities. On approximately the 7th day, they were asked to begin twice daily dosing of 2 Q (1000 mg) capsules (total daily dose of Q, 2000 mg). Diaries were completed for 7 days. Individual diaries included rating sleep interference, focus, pain now, and worst pain over the prior 24 hours. Subjects were instructed that concomitant pain medications should not be altered without speaking with the investigator. Subjects were advised that they would be contacted by telephone every day or every other day to assess progress in the trial and any side effects associated with the addition of Q. At the end of the trial, patients were interviewed. They were asked to rate their satisfaction with the study medication (−2-+2) and its ability to modulate the CNS effects of their pain medications.

[3] = tested on: Healthy subjects undergoing third molar removal; test: Quercetin ameliorates CNS effects of oxycodone in an acute pain model (third molar removal); assay type: in vivo, human
Procedure: Opioids frequently produce adverse CNS side effects in ambulatory settings, providing a rationale for improving opioid analgesia by minimizing adverse effects. […] Healthy subjects (N=65) undergoing third molar removal are randomly allocated to receive 500 mg oral quercetin or matching placebo at 1 hr prior to surgery. […] Total Nausea and Vomiting Score (TNVS) is calculated for the time from dosing through 24 hr.

Structure (SMILES) | sensitivity to fetal cleft palate ([1]; heterozygous (+/-) mice) | sensitivity to fetal cleft palate ([1]; homozygous (+/+) mice) | sleep rating (1 perfect sleep, 10 worst) ([2]; after taking Q, all patients, FIG. 5) | concentration rating (1 perfect concentration, 10 worst) ([2]; after taking Q, all patients, FIG. 6) | worst pain in the last 24 hrs (NPRS, 1 no pain, 10 worst) ([2]; after taking Q, all patients, FIG. 7) | pain at the time the patients were called (pain now) ([2]; after taking Q, all patients, FIG. 8) | global assessment (scale of -2 to 2) ([2]; all patients on opiate or MSD and modulator (Q), FIG. 15) | CNS activation noted ([2]; opioid users taking Q) | central withdrawal noted (number of opioid users) ([2]; opioid users taking Q) | number of patients reporting 2 in global assessment ([2]; scale of -2 to 2, FIG. 15) | number of patients reporting -2 in global assessment ([2]; scale of -2 to 2, FIG. 15) | pain on the scale from 1-10 (worst pain in last 24 hrs, pain at time of call) ([2]; two patients not on baseline meds, poor tolerance of systemic medications, FIGS. 13 and 14) | median time to request for a second analgesic ([3]; 500 mg oral quercetin + 10 mg oral oxycodone) [min] | mean pain intensity ([3]; 500 mg oral quercetin + 10 mg oral oxycodone, compared with placebo group) | oxycodone plasma concentrations, quercetin vs placebo group ([3]; prior to surgery, at 1 hr, at 4 hr)
CC[C@H](C)[C@H]1O[C@]2(C=C[C@@H]1C)C[C@@H]1C[C@@H](C/C=C(\C)[C@@H](O[C@H]3C[C@H](OC)[C@@H](O[C@H]4C[C@H](OC)[C@@H](O)[C@H](C)O4)[C@H](C)O3)[C@@H](C)/C=C/C=C3\CO[C@@H]4[C@H](O)C(C)=C[C@@H](C(=O)O1)[C@]34O)O2 [avermectin] | less sensitive | insensitive | – | – | – | – | – | – | – | – | – | – | – | – | –
O=c1c(O)c(-c2ccc(O)c(O)c2)oc2cc(O)cc(O)c12 [quercetin] | – | – | overall improvement | overall improvement | overall improvement | overall improvement | overall improvement in their condition | all the 4 opioid users | 3 | three | none | brought the pain down | 120 | consistently lower | do not differ
